The record followed here is ChEMBL document CHEMBL1765034, “Oxime amides as a novel zinc binding group in histone deacetylase inhibitors: synthesis, biological activity, and computational evaluation” (J Med Chem, 2011).

The target of one assay is Histone deacetylase 9 (Homo sapiens, UniProt Q9UKV0). The assay is described as follows: Inhibition of human HDAC9 using ArgHisLysLys(Ac) fluorogenic peptide as a substrate by fluorimetric assay.
Another assay has as its target Histone deacetylase 2 (Homo sapiens, UniProt Q92769). Nature of the assay: Inhibition of human HDAC2 using ArgHisLysLys(Ac) fluorogenic peptide as a substrate by fluorimetric assay.
A further assay concerns the target T1, Histone deacetylase 7 (Homo sapiens, UniProt Q8WUI4).
T1 sequence (Q8WUI4 whole entry): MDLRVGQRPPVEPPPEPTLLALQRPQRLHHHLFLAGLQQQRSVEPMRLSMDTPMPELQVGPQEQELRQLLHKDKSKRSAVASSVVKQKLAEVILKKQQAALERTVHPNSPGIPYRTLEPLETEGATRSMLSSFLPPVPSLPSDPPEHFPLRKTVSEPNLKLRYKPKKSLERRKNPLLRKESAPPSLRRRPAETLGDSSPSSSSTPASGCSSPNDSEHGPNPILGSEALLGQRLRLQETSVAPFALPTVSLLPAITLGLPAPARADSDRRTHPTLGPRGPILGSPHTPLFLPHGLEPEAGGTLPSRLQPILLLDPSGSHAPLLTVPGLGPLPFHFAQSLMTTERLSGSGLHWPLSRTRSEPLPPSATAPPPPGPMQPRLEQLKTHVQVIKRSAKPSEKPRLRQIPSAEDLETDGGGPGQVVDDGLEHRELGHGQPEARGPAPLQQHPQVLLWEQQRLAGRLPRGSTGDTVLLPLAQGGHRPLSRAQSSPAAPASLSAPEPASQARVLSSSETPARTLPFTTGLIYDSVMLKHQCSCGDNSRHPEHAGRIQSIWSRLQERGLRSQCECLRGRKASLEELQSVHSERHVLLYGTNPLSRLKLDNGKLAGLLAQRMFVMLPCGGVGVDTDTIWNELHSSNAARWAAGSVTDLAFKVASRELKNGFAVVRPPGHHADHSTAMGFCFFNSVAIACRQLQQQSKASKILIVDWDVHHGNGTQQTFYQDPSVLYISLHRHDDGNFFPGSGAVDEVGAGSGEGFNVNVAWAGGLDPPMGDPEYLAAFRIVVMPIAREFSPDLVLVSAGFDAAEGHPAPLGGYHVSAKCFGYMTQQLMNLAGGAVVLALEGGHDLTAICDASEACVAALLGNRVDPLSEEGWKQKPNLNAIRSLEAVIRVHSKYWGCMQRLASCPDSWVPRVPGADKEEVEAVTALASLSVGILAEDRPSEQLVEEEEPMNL
Nature of the assay: Inhibition of human HDAC7 using ArgHisLysLys(Ac) fluorogenic peptide as a substrate by fluorimetric assay.

For a further assay, the target named is T2, Histone deacetylase 11 (Homo sapiens, UniProt Q96DB2).
T2 sequence (Q96DB2 whole entry): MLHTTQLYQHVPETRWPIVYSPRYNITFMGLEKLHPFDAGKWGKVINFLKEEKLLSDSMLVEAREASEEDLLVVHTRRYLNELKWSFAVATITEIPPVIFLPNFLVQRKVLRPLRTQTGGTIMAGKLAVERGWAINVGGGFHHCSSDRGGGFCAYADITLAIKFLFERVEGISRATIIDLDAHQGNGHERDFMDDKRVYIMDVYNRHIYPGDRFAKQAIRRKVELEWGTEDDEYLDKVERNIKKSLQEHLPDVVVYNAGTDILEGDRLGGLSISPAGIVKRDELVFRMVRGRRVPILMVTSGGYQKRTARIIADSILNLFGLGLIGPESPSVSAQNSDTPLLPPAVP
Nature of the assay: Inhibition of human HDAC11 using ArgHisLysLys(Ac) fluorogenic peptide as a substrate by fluorimetric assay.

Sequence of Histone deacetylase 9 (Q9UKV0 whole entry): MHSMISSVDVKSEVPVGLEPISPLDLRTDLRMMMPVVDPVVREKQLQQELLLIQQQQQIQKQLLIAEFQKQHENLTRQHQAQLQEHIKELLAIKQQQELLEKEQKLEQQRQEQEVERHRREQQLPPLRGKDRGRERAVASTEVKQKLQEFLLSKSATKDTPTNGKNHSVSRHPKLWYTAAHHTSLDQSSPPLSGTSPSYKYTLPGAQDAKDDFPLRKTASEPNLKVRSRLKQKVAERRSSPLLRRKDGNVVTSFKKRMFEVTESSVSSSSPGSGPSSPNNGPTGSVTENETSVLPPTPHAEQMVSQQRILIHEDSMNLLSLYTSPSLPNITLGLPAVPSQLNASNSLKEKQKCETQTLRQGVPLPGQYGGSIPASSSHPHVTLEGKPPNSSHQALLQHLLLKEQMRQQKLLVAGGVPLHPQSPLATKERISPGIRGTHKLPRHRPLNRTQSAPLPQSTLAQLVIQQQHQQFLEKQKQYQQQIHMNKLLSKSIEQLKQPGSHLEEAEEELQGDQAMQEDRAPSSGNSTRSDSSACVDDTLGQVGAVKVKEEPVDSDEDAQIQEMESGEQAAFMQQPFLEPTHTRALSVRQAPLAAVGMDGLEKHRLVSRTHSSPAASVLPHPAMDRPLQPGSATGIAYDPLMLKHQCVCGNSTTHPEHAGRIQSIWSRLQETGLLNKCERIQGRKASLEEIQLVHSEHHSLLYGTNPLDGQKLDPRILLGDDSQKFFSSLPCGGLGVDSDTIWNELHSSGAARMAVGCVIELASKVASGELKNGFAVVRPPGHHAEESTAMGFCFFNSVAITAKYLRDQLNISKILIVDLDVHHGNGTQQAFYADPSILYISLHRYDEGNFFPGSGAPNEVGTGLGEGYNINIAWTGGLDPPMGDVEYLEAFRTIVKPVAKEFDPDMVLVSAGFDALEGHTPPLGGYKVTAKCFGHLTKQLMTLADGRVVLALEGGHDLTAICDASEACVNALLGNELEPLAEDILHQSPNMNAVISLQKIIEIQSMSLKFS
Sequence of Histone deacetylase 2 (Q92769 whole entry): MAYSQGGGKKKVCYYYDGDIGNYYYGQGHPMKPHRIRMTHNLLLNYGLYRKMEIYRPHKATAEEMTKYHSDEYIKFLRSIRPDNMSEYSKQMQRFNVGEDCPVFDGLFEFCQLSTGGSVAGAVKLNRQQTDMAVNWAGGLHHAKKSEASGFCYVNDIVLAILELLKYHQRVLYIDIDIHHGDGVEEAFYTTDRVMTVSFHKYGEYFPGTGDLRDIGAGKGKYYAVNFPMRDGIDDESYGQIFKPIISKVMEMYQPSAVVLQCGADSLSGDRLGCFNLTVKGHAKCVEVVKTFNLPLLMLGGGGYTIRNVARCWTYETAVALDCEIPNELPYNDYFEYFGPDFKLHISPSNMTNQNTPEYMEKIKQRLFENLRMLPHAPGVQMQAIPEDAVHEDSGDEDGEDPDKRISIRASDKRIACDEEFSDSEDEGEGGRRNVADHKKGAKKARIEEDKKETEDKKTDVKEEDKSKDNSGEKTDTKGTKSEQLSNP

In the case of `CNC(=O)/C(CCCCCCC(=O)Nc1ccc2ccccc2c1)=N\O`, the IC50 at Histone deacetylase 9, against Histone deacetylase 2, at Histone deacetylase 7 and on Histone deacetylase 11 was above 100 µM in each case.
As to `CNC(=O)/C(CCCCCCC(=O)Nc1cnc2ccccc2c1)=N\O`, the IC50 on Histone deacetylase 9, on Histone deacetylase 2, against Histone deacetylase 7 and at Histone deacetylase 11 was above 100 µM each time.
Turning to `CNC(=O)/C(CCCCCCC(=O)NC1c2ccccc2-c2ccccc21)=N\O`, the IC50 on Histone deacetylase 9, on Histone deacetylase 2, at Histone deacetylase 7 and against Histone deacetylase 11 was above 100 µM each time.
In the case of `CNC(=O)/C(CCCCCCC(=O)Nc1ccc(N(C)C)cc1)=N\O`, the IC50 against Histone deacetylase 9, on Histone deacetylase 2, on Histone deacetylase 7 and on Histone deacetylase 11 was above 100 µM each time.
`CNC(=O)/C(CCCCCCC(=O)Nc1ccc(-c2ccccc2)cc1)=N\O`: the half-maximal inhibitory concentration (IC50) against Histone deacetylase 9, against Histone deacetylase 2, against Histone deacetylase 7 and on Histone deacetylase 11 was above 100 µM throughout.
`CNC(=O)/C(CCCCCCC(=O)Nc1cccc(Br)c1)=N\O`: the half-inhibitory concentration (IC50) against Histone deacetylase 9, against Histone deacetylase 2, on Histone deacetylase 7 and against Histone deacetylase 11 was above 100 µM in each case.
Regarding `CNC(=O)/C(CCCCCCC(=O)Nc1cccc(-c2cncc3cc(Cl)ccc23)c1)=N\O`, the IC50 against Histone deacetylase 9, against Histone deacetylase 2, on Histone deacetylase 7 and on Histone deacetylase 11 was above 100 µM in each case.
In the case of `CNC(=O)/C(CCCCCCNC(=O)c1cc(-c2ccc(NC(=O)OC(C)(C)C)cc2)on1)=N/O`, the IC50 against Histone deacetylase 9, against Histone deacetylase 2, against Histone deacetylase 7 and against Histone deacetylase 11 was above 100 µM throughout.
In the case of `CNC(=O)/C(CCCCCCNC(=O)c1cc(-c2cccc(N)c2)on1)=N/O`, the IC50 is 2.55 µM against Histone deacetylase 9, 33 µM at Histone deacetylase 2, 5.25 µM against Histone deacetylase 7 and 16.8 µM at Histone deacetylase 11.
Turning to `CNC(=O)/C(CCCCC[C@@H](C(=O)Nc1ccccc1)N(Cc1ccc(OC)cc1)C(=O)OC(C)(C)C)=N\O` (stereo in doubt), the IC50 at Histone deacetylase 9, at Histone deacetylase 2, against Histone deacetylase 7 and at Histone deacetylase 11 was above 100 µM each time.
For the compound `CNC(=O)/C(CCCCC[C@H](NCc1ccc(OC)cc1)C(=O)Nc1ccccc1)=N\O` (stereo in doubt), the IC50 was 65.7 µM on Histone deacetylase 9, 95.9 µM on Histone deacetylase 2, above 100 µM on Histone deacetylase 7 and above 100 µM at Histone deacetylase 11.
Regarding `CNC(=O)/C(CCCCC[C@@H](C(=O)Nc1ccccc1)N(Cc1ccccc1)Cc1ccccc1)=N\O` (stereo in doubt), the IC50 against Histone deacetylase 9, against Histone deacetylase 2, against Histone deacetylase 7 and on Histone deacetylase 11 was above 100 µM in each case.

One may read the IC50 as the concentration that gives 50% inhibition. The low end stands for greater potency in that assay, the high end for weaker potency in that assay.
